From patent US10696996B2, “Biosynthesis of everninomicin analogs in Micromonospora carbonacea var aurantiaca” (VANDERBILT UNIVERSITY, priority 2015, dated 2020)
In brackets after ≈: the same amount, converted by molar mass. Like-named read-outs stand apart in the source and are kept apart here.

Tests used:
[1] = tested on: Staphyloccocus aureus subsp. aureus Rosenbach (ATCC 6538P); assay: broth microdilution assay (NCCLS), antibacterial activity; assay type: cell-based, Staphylococcus aureus; conditions: for MIC: S. aureus subsp. aureus Rosenbach, broth microdilution
Procedure: The antibacterial activity of purified everninomicins and conjugates was determined by the broth microdilution assay according to NCCLS guidelines using Staphyloccocus aureus subsp. aureus Rosenbach (ATCC 6538P) as the test organism.

M. carbonacea = assay: nalidixic acid concentration test for conjugation, survival of M. carbonacea; assay type: cell-based, Micromonospora carbonacea var aurantiaca
E. coli = assay: nalidixic acid concentration test for conjugation, growth of donor E. coli; assay type: cell-based, Escherichia coli
Procedure: M. carbonacea was grown on TSB agar (Oxoid™ Tryptone Soy Broth, 2% agarose) for 7 days at 30° C. Conjugal acceptor mycelia were prepared by inoculating a loop of mycelia into 10 mL of TSB medium in a 50 mL Falcon tube and incubating with shaking at 30° C. for 5 days. The culture was then centrifuged at 3000×g for 10 minutes and the pellet resuspended in 2 mL fresh TSB. 150 μL aliquots were transferred into sterile 1.5 mL Eppendorf tubes and homogenized using a sterile plastic cell homogenizer. Donor E. coli ET12567/pUZ8002 cells containing the gene replacement were prepared by inoculating 1% of a freshly prepared overnight LB culture into 10 mL LB medium in a 50 mL Falcon tube containing apramycin and kanamycin and grown to an OD600 of 0.4 at 37° C. with shaking. The culture was centrifuged at 3000×g for 10 minutes, and the pellet was washed three times with 10 mL fresh LB. After the final wash, the pellet was resuspended in 150 μL LB. 50 μL of donor E. coli was added to 150 μL of recipient M. carbonacea. The bacterial mixture was plated on AS1 agar (0.1% yeast extract, 0.5% soluble starch, 0.02% L-alanine, 0.02% L-arginine, 0.05% L-asparagine, 0.25% NaCl, 1% Na2SO4, 2% agarose at pH 7.5, supplemented with 10 mM MgCl2). The plates were then incubated at 37° C. for 1-2 hours until thoroughly dried. […]

HygX = target: T1, HygX (Streptomyces hygroscopicus, UniProt Q2MFS1); assay: tryptophan fluorescence quenching assay, hygromycin B binding to HygX; set-up: species or system S. hygroscopicus; conditions: 20° C.
T1 sequence (Q2MFS1 1-258): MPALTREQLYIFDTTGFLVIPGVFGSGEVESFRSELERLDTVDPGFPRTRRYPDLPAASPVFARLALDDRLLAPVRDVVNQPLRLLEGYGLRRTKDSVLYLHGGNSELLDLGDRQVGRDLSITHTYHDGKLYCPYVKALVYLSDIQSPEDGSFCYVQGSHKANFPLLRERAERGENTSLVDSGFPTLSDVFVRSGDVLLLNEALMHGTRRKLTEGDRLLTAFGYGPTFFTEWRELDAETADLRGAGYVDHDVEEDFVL
Procedure: The Kd of hygromycin B binding to HygX was determined by monitoring the quenching of intrinsic fluorescence from the single tryptophan residue of HygX upon hygromycin B binding. Using a Cary Eclipse Varian fluorescence spectrometer, sample fluorescence was measured at 20° C. with both emission and excitation slits set at 10 nm and detector voltage set to 800 V. The […] wavelength was set to 280 nm, and spectra collected were from 300 to 400 nm, with 350 nm used for calculating binding affinity. Each sample contained 990 μL of 0.5 μM HygX in 25 mM Tris (pH 7.4), 75 mM NaCl, 0.05 mM AKG, and 0.05 mM NiCl2, which was then mixed with 10 μL of hygromycin B (diluted in the above buffer) of varying concentrations. Spectra were measured in triplicate, and the experiment repeated three times. Because hygromycin B at higher concentrations has background fluorescence between 300 and 400 nm, the experiment was repeated using only buffer and subtracted from the measurement taken with HygX present. Change in fluorescence resulting from changing hygromycin B concentration was plotted against hygromycin B concentration and fit to a single binding-site model using Kaleidagraph Version 4.0.

[2] = Staphylococcus aureus, ATCC6538P, read-out: MIC

Molecule: COC[C@H]1O[C@@H](O[C@@H]2OC[C@@H]3O[C@@]4(OC[C@@H](OC(=O)c5c(C)cc(O)cc5O)[C@@H]5OCO[C@H]54)O[C@H]3[C@H]2O)[C@@H](OC)[C@@H](O)[C@@H]1O[C@@H]1O[C@H](C)[C@H](OC)[C@H](O[C@@H]2O[C@H](C)[C@H]3O[C@]4(C[C@@H](O)[C@H](O[C@H]5C[C@@H](O[C@H]6C[C@](C)([N+](=O)[O-])[C@@H](OC)[C@H](C)O6)[C@H](OC(=O)c6c(C)c(Cl)c(O)c(Cl)c6OC)[C@@H](C)O5)[C@@H](C)O4)O[C@]3(C)[C@@H]2O)[C@H]1O [everninomicin A]
- MIC [1, 2]: 1 µg/mL (≈ 0.613 µM)

Molecule: CCn1cc(C(=O)O)c(=O)c2ccc(C)nc21 [nalidixic acid]
- growth of M. carbonacea (M. carbonacea; nalidixic acid 12.5 μg/mL): substantially more
- growth of M. carbonacea (M. carbonacea; nalidixic acid 25 μg/mL): stunted the growth
- viability of M. carbonacea (M. carbonacea; nalidixic acid 50 μg/mL): not viable
- growth of E. coli (E. coli; nalidixic acid 12.5 μg/mL): stunted
- growth of E. coli (E. coli; nalidixic acid 25 μg/mL): stunted the growth

Molecule: CCC1OC(=O)C[C@@H](O)[C@H](C)[C@@H](OC2OC(C)CC(N(C)C)C2O)[C@@H](CC=[N+]([O-])[C@@]2(C)C[C@@H](O[C@@H]3C[C@H](O[C@@H]([C@H](O)CC(=O)O)[C@@H](C)O)O[C@H](C)[C@H]3OC(=O)c3c(C)c(Cl)c(O)c(Cl)c3OC)O[C@@H](C)[C@H]2OC)C[C@@H](C)C(=O)/C=C/[C@]2(C)O[C@H]2[C@@H]1C (stereo partly shown)
- MIC [1, 2]: 1 µg/mL (≈ 0.791 µM)

Molecule: everninomicin H
- activity against S. aureus ([1]; S. aureus): moderately active
- MIC [1]: 16 µg/mL

Molecule: CNC1CC(N)C(O)C(OC2OC(CO)C(O)C3OC4(OC(C(N)CO)C(O)C(O)C4O)OC23)C1O (stereo not shown) [hygromycin B]
- Kd (HygX): 3.4 ± 0.5 µM
